Test results as given in patent US11226340B2, “Therapeutically triggering an innate immune response in a target tissue” (priority 2016, dated 2022).

Legend:
B16 melanoma [1] = assay: STING agonist combined with SSI in B16 melanoma lung model; type: in vivo, mouse; conditions: day +14
Experimental: The anti-tumour efficacy of QBKPN SSI in combination with the STING agonist 2′2′-cGMAP (inVivoGen) was evidenced in C57Bl/6 mice, as follows. On ˜day −31, mice were infected with K. pneumoniae (2.5×10^5 cells/mouse) by oropharyngeal instillation after being anaesthetized with isofluorane, then rested. Within 5-7 days, all mice were fully recovered from K. pneumonia challenge. Starting on day −10, some mice were S.C. injected with QBKPN SSI; mice were injected every other day from Day −10 to day +12. Injections were performed in rotating sites at a dose of 0.03 ml of a 5.0 OD suspension. On days −10, −6, and −4, some mice were also treated with STING agonist (SC injection of 10 μg/mouse in 20 μl of saline), either co-mixed with SSI or s.c. in a distal site (nape). On Day 0, mice were challenged with B16 melanoma by tail-vein (I.V.) injection of singlecell suspensions of tumour cells (2.0×10^5 cells/mouse). On day +14, plasma was collected for ELISA, then mice were sacrificed and visual metastases counted and recorded. Serum was collected into heparin-containing tubes, then centrifuged to remove cells. ELISA (RND Systems DuoSet DY485, limit of detection […]) was performed per the manufacturer's protocol. […] Statistical differences were evaluated by unpaired T test (GraphPad PRISM).

B16 melanoma [2] = assay: Cancer antigen (gp100) potentiation in B16 melanoma lung model; type: in vivo, mouse; conditions: K. pneumoniae-pre-exposed mice; day +14

Row | Compound | tumour burden (tumour nodules in the lungs) (B16 melanoma [1]; K. pneumoniae-pre-exposed mice) | circulating (plasma) levels of IFN-γ (B16 melanoma [1]) | tumour burden (metastatic-like B16 melanoma in the lungs) (B16 melanoma [2])
1 | Nc1nc2c(ncn2[C@@H]2O[C@@H]3COP(=O)(O)O[C@@H]4[C@H](O)C(COP(=O)(O)O[C@@H]2C3O)O[C@H]4n2cnc3c(N)ncnc32)c(=O)[nH]1 (stereo partly drawn) [STING agonist, 2′2′-cGMAP] | reduced tumour burden (p=0.0038) | enhanced circulating levels of IFN-γ | –
2 | KVPRNQDWL [gp100, melanoma-specific antigen gp100 25-33 peptide] | – | – | no significant effect
